The IC50 is the midpoint of a concentration-inhibition curve.

One data set deals with NDM-1 (Klebsiella pneumoniae, UniProt C7C422). The data set is described as follows: biochemical. The format is biochemical. Particulars: CCF2-FA fluorescence assay, 2 hours at 25° C. An outline of the steps:
(§1)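 In pH 7 phosphate buffer (100 mM) with 10 μM ZnSO4 and 0.005% Tween-20, CCF2-FA hydrolysis (1.25 μM) by 1 pM NDM-1, 2 pM IMP-1 or 30 pM VIM-1 was run 2 h at 25° C with inhibitor from 20 to 0.00063 μM. Ex 405/em 460 nm signal fitted to a 4-parameter curve for IC50.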

The target in a further data set is IMP-1 (Serratia marcescens, UniProt P52699). The data set is described as follows: biochemical. Particulars: CCF2-FA fluorescence assay, 2 hours at 25° C.; read-out: IMP1 IC50. An outline of the steps:
as §1

Another data set has as its target VIM-1 (Pseudomonas aeruginosa (strain ATCC 15692 / DSM 22644 / CIP 104116 / JCM 14847 / LMG 12228 / 1C / PRS 101 / PAO1), UniProt A0A0F7KYQ8). The data set is described as follows: biochemical. The following applies: CCF2-FA fluorescence assay, 2 hours at 25° C.; read-out: VIM1 IC50. An outline of the steps:
as §1

The target in a further data set is VIM-2 (Escherichia coli, UniProt Q5U7L7). Put plainly: biochemical. Particulars: CCF2-FA fluorescence assay; read-out: VIM2 IC50.
The subject of data set [1] is Escherichia coli expressing NDM-1 (CLB30016). The format is cell-based. The following applies: with imipenem 1 μg/ml; 95% inhibition of bacterial growth. The gist of the method: (§2)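 Synergy with imipenem at a fixed 1 μg/ml was scored by absorbance following 22–24 h incubation at 35 °C; the potentiating concentration (MITC95) was the lowest giving 95% growth inhibition.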

Data set [2] has as its system Klebsiella pneumoniae expressing VIM-1 (IHMA599644). The data set is classed as cell-based. Particulars: with imipenem 1 μg/ml; 95% inhibition of bacterial growth. An outline of the steps:
as §2

The subject of data set [3] is Serratia marcescens expressing IMP-1 (CL5741). The data set is classed as cell-based. The following applies: with imipenem 1 μg/ml; 95% inhibition of bacterial growth. An outline of the steps: as §2
Data set [4] deals with P. aeruginosa MB9798 (efflux+, IMP-1 plasmid). The following applies: for MB9798 MITC95 P. aeruginosa uM Efflux WT: efflux + (MB9798) strain, imipenem at 2 μg/mL, in the presence of a class A, C, D serine β-lactamase inhibitor closely related to relebactam; for Efflux ratio: fold difference between efflux+ (MB9798) and efflux− (MB9799) strains. The gist of the method: (§3)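 Isogenic P. aeruginosa PAO1 strains (efflux+ and multiple-efflux-pump-disrupted) carrying plasmid IMP-1, with inducible AmpC, tested by broth microdilution. Imipenem and/or ceftazidime fixed, usually at CLSI breakpoint, plus fixed class A/C β-lactamase inhibitor; titrated MBL inhibitor concentration restoring susceptibility recorded and compared between strains as efflux fold difference.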

The test system of data set [5] is P. aeruginosa MB9799 (efflux-, IMP-1 plasmid). The data set is classed as cell-based, Pseudomonas aeruginosa. Particulars: efflux − (MB9799) strain; imipenem at 2 μg/mL; in the presence of a class A, C, D serine β-lactamase inhibitor closely related to relebactam. The gist of the method: as §3

Sequence of NDM-1 (C7C422 whole entry, looked up, species assumed): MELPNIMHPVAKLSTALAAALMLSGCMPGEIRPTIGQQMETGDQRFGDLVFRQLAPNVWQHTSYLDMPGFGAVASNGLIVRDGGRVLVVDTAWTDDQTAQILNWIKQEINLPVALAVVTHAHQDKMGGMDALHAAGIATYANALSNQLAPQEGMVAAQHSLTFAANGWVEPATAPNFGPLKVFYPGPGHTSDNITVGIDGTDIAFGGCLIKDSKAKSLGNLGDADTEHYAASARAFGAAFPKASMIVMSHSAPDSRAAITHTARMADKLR
Sequence of IMP-1 (P52699 whole entry, looked up, species assumed): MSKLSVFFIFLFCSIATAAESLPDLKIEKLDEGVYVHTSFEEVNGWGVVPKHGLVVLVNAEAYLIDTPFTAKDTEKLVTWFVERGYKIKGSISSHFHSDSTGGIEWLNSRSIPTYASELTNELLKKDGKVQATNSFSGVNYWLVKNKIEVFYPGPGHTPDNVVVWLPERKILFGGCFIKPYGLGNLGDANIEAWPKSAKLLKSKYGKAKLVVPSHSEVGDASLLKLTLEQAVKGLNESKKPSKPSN

In the case of `NC[C@H](N)CNS(=O)(=O)c1ccc(N2CCC(c3c[nH]cn3)CC2)c(-c2nn[nH]n2)c1S(N)(=O)=O` [Example 168, (S)-4-(4-(1H-imidazol-4-yl)piperidin-1-yl)-N1-(2,3-diaminopropyl)-3-(2H-tetrazol-5-yl)benzene-1,2-disulfonamide], the half-inhibitory concentration (IC50) against NDM-1 was found to be 0.17 nM; at IMP-1, 0.24 nM; at VIM-1, 0.07 nM; on VIM-2 it was 0.48 nM. Further, the “CLB30016 E. coli MITC95 NDM” value in data set [1] stood at 0.39 µM. For the same molecule, the “IHMA599644 K. pneumoniae MITC95 VIM” value in [2] turned out to be 1.56 µM. The “CL5741 S. marcescens MITC95 IMP” value in data set [3] was 0.78 µM. Further, the “MB9798 MITC95 P. aeruginosa uM Efflux WT” value in [4] stood at 1.56 µM. Moreover, in data set [4], the Efflux ratio amounted to 2.00. Moreover, the “MB9799 MITC95 P. aeruginosa uM Efflux Mutant” value in data set [5] came to 0.78 µM.
For `NC[C@@H](O)CNS(=O)(=O)c1ccc(N2CCC3CNCC3C2)c(-c2nnn[nH]2)c1S(N)(=O)=O` (stereo partly drawn) [Example 141, N1-((R)-3-amino-2-hydroxypropyl)-4-(hexahydro-1H-pyrrolo[3,4-c]pyridin-5(6H)-yl)-3-(1H-tetrazol-5-yl)benzene-1,2-disulfonamide], the IC50 against NDM-1 was 15.8 nM; at IMP-1 it was 11.9 nM; on VIM-1 it was 0.43 nM; on VIM-2, 15.7 nM. Also, in data set [1], the “CLB30016 E. coli MITC95 NDM” value was determined as 1.56 µM. Further, the “IHMA599644 K. pneumoniae MITC95 VIM” value in [2] was determined as 1.56 µM. Besides, the “CL5741 S. marcescens MITC95 IMP” value in data set [3] came to 1.56 µM. In data set [4], the “MB9798 MITC95 P. aeruginosa uM Efflux WT” value is 6.25 µM. Besides, in [4], the Efflux ratio is 4.00. Further, in data set [5], the “MB9799 MITC95 P. aeruginosa uM Efflux Mutant” value worked out at 1.56 µM.
Take `NCCOC1CCN(c2ccc(S(=O)(=O)NC[C@H](O)CN)c(S(N)(=O)=O)c2-c2nn[nH]n2)CC1` [Example 209, (R)—N1-(3-amino-2-hydroxypropyl)-4-(4-(2-aminoethoxy)piperidin-1-yl)-3-(2H-tetrazol-5-yl)benzene-1,2-disulfonamide]: the IC50 on NDM-1 worked out at 0.96 nM; at IMP-1, 1.69 nM; at VIM-1 it was 0.12 nM; on VIM-2, 3.32 nM. The “CLB30016 E. coli MITC95 NDM” value in data set [1] came to 0.78 µM. Further, the “IHMA599644 K. pneumoniae MITC95 VIM” value in data set [2] turned out to be 1.56 µM. The “CL5741 S. marcescens MITC95 IMP” value in [3] stood at 1.56 µM. Also, the “MB9798 MITC95 P. aeruginosa uM Efflux WT” value in [4] amounted to 0.78 µM. Also, in data set [4], the Efflux ratio is 1.00. Also, the “MB9799 MITC95 P. aeruginosa uM Efflux Mutant” value in data set [5] came to 0.78 µM.
Take `NS(=O)(=O)c1c(S(=O)(=O)C2CNC2)ccc(N2CCN(CCO)CC2)c1-c1nnn[nH]1` [Example 54, 6-(azetidin-3-ylsulfonyl)-3-[4-(2-hydroxyethyl)piperazin-1-yl]-2-(1H-tetrazol-5-yl)benzenesulfonamide]: the IC50 at NDM-1 was found to be 16.7 nM; on IMP-1 it was 21.9 nM; on VIM-1 it was 66.1 nM; at VIM-2 it was 69.5 nM. Besides, the “CLB30016 E. coli MITC95 NDM” value in data set [1] came out at 0.39 µM. Also, the “IHMA599644 K. pneumoniae MITC95 VIM” value in data set [2] came out at 6.25 µM. The “CL5741 S. marcescens MITC95 IMP” value in [3] was 0.39 µM. The “MB9798 MITC95 P. aeruginosa uM Efflux WT” value in [4] came out at 6.25 µM. Besides, the Efflux ratio in [4] was determined as 4.00. Besides, in data set [5], the “MB9799 MITC95 P. aeruginosa uM Efflux Mutant” value worked out at 1.56 µM.
Consider `CC1(O)CCN(c2ccc(S(=O)(=O)N[C@@H]3CCNC3)c(S(N)(=O)=O)c2-c2nnn[nH]2)CC1` [Example 71, 4-(4-hydroxy-4-methylpiperidin-1-yl)-N1-[(3R)-pyrrolidin-3-yl]-3-(1H-tetrazol-5-yl)benzene-1,2-disulfonamide], for which the IC50 was found to be 0.26 nM against NDM-1, 0.7 nM on IMP-1, 0.53 nM at VIM-1 and 1.69 nM at VIM-2. Moreover, the “CLB30016 E. coli MITC95 NDM” value in data set [1] was found to be 3.13 µM. Moreover, the “IHMA599644 K. pneumoniae MITC95 VIM” value in [2] came out at 6.25 µM. In [3], the “CL5741 S. marcescens MITC95 IMP” value came out at 3.13 µM. Moreover, in data set [4], the “MB9798 MITC95 P. aeruginosa uM Efflux WT” value came to 1.56 µM. Moreover, in data set [4], the Efflux ratio worked out at 1.00. Further, the “MB9799 MITC95 P. aeruginosa uM Efflux Mutant” value in data set [5] is 1.56 µM.
In the case of `NS(=O)(=O)c1c(S(=O)(=O)N[C@@H]2CCNC2)ccc(NCC2CCNCC2)c1-c1nn[nH]n1` [Example 183, (R)-4-((piperidin-4-ylmethyl)amino)-N1-(pyrrolidin-3-yl)-3-(2H-tetrazol-5-yl)benzene-1,2-di sulfonamide], the IC50 on NDM-1 stood at 6.26 nM; at IMP-1 it was 12.4 nM; at VIM-1, 5.89 nM; at VIM-2 it was 69.7 nM. The “CLB30016 E. coli MITC95 NDM” value in [1] turned out to be 1.17 µM. In addition, in data set [2], the “IHMA599644 K. pneumoniae MITC95 VIM” value was 2.34 µM. Further, the “CL5741 S. marcescens MITC95 IMP” value in [3] is 1.56 µM. In [4], the “MB9798 MITC95 P. aeruginosa uM Efflux WT” value stood at 3.13 µM. The Efflux ratio in data set [4] stood at 2.67. In addition, the “MB9799 MITC95 P. aeruginosa uM Efflux Mutant” value in data set [5] was 1.17 µM.
`NC[C@@H](O)CNS(=O)(=O)c1ccc(N2CC[C@@H](N)[C@H](F)C2)c(-c2nn[nH]n2)c1S(N)(=O)=O` [Example 2]: the half-inhibitory concentration (IC50) against NDM-1 is 6.51 nM; at IMP-1, 3.37 nM; at VIM-1, 0.17 nM; on VIM-2, 4.04 nM. Also, the “CLB30016 E. coli MITC95 NDM” value in data set [1] was found to be 0.20 µM. Also, in [2], the “IHMA599644 K. pneumoniae MITC95 VIM” value came out at 0.78 µM. For the same molecule, the “CL5741 S. marcescens MITC95 IMP” value in [3] was 0.78 µM. The “MB9798 MITC95 P. aeruginosa uM Efflux WT” value in data set [4] was 0.78 µM. In addition, the Efflux ratio in [4] turned out to be 1.00. Further, the “MB9799 MITC95 P. aeruginosa uM Efflux Mutant” value in data set [5] was 0.78 µM.
Take `CN1CCN(c2ccc(S(=O)(=O)N[C@@H]3CCNC3)c(S(N)(=O)=O)c2-c2nnn[nH]2)CC1=O` [Example 65, 4-(4-methyl-3-oxopiperazin-1-yl)-N1-[(3R)-pyrrolidin-3-yl]-3-(1H-tetrazol-5-yl)benzene-1,2-disulfonamide]: the IC50 at NDM-1 was 1.28 nM; at IMP-1 it was 2.26 nM; on VIM-1 it was 0.22 nM; on VIM-2, 1 nM. Besides, the “CLB30016 E. coli MITC95 NDM” value in data set [1] was determined as 3.13 µM. In [2], the “IHMA599644 K. pneumoniae MITC95 VIM” value was 6.25 µM. For the same molecule, the “CL5741 S. marcescens MITC95 IMP” value in [3] worked out at 3.13 µM. The “MB9798 MITC95 P. aeruginosa uM Efflux WT” value in [4] turned out to be 3.13 µM. Also, in [4], the Efflux ratio was 2.00. In addition, the “MB9799 MITC95 P. aeruginosa uM Efflux Mutant” value in [5] worked out at 1.56 µM.
Take `NCC=C1CCCN(c2ccc(S(=O)(=O)NC[C@H](O)CN)c(S(N)(=O)=O)c2-c2nn[nH]n2)C1` (single isomer, unassigned; isomer a) [Example 205]: the IC50 on NDM-1 amounted to 7.59 nM; on IMP-1, 19.7 nM; at VIM-1 it was 0.34 nM; at VIM-2, 1.07 nM. Also, the “CLB30016 E. coli MITC95 NDM” value in data set [1] was determined as 0.78 µM. Moreover, the “IHMA599644 K. pneumoniae MITC95 VIM” value in data set [2] was 1.56 µM. Also, the “CL5741 S. marcescens MITC95 IMP” value in [3] is 1.56 µM. Further, the “MB9798 MITC95 P. aeruginosa uM Efflux WT” value in [4] worked out at 12.50 µM. Also, the Efflux ratio in [4] was determined as 8.00. In data set [5], the “MB9799 MITC95 P. aeruginosa uM Efflux Mutant” value was 1.56 µM.
